What was measured:
pkAAAD [1] = biological target: T1, pkAAAD (Sus scrofa, UniProt P80041); conditions: literature (Sourkes 1987), ratio :1; cited from earlier work
T1 construct: Frozen tissue was partially thawed in lysis buffer, then it was extracted and partially purified; from tissue; host or cells: pig kidney
T1 sequence (P80041 1-486): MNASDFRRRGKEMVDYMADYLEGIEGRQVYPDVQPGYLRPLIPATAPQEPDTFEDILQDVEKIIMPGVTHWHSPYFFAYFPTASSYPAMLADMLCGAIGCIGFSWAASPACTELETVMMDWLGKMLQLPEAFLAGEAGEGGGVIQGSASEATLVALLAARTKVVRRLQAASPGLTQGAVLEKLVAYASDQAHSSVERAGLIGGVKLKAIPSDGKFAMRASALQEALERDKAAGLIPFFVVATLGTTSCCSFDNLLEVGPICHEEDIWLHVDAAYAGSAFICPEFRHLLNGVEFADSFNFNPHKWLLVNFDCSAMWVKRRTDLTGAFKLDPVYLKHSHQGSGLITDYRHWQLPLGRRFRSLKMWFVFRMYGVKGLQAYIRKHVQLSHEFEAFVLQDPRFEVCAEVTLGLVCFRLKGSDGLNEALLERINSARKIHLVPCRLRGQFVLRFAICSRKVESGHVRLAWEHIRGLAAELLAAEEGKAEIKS

pkAAAD [2] = biological target: T1, pkAAAD; experiment: pkAAAD-catalyzed decarboxylation rate ratio by HPLC; type: biochemical, pig; conditions: HPLC of acid-quenched aliquots, ratio to 1
Procedure: Tryptophan synthase activity was assayed by monitoring the increase in absorbance at 290 nm of a mixture containing serine, indole and PLP (Higgins, W., et al., Biochemistry, 1979, 18, 4827). TnA-catalyzed tryptophan synthesis was also measured by the 290 nm assay, while the tryptophan lyase reaction rate was measured by monitoring the reduction in NADH in reaction mixtures containing L-tryptophan and lactate dehydrogenase, indicating the amount of pyruvate released. Tryptophan decarboxylase was assayed colorimetrically by monitoring the sabsorbance at 580 nm produced by serotonin (AAADs) or tryptamine (TDCs) following treatment of reaction aliquots with Ehrlich's reagent (4-N,N-(dimethyl)aminobenzaldehyde in ethanolic HCl; Nakazawa, H.; Kumagi, H.; Yamada, H. Biochem Biophys. Res. Commun., 1974, 61, 75-82). Serotonin could be detected with approximately 5-fold higher sensitivity by this method as compared with tryptamine. The Ehrlich reagent assay using a microtiter plate format for simultaneous analysis of multiple enzyme samples may also be used. HPLC analysis was performed on acid-quenched reaction aliquots by using a base-deactivated C8 reversed-phase support (Shandon Hypersil BD8). […]

tryptophanase (TnA) = biological target: T2, tryptophanase (TnA) (Escherichia coli, UniProt P0A853); type: biochemical, E. coli; design: key: +: a clear ninhydrin-positive spot at the Rf of standard tryptophan derivatives after 16-65 h; (+): a weak spot in the product region; −: no product observed; NR: experiment not run; conditions: indole derivative + L-serine + PLP, 37° C., 16-65 h, ninhydrin
T2 construct: made in house; host or cells: E. coli LMG194 (pBAD) or BL-21 (pET)
T2 sequence (P0A853 whole entry): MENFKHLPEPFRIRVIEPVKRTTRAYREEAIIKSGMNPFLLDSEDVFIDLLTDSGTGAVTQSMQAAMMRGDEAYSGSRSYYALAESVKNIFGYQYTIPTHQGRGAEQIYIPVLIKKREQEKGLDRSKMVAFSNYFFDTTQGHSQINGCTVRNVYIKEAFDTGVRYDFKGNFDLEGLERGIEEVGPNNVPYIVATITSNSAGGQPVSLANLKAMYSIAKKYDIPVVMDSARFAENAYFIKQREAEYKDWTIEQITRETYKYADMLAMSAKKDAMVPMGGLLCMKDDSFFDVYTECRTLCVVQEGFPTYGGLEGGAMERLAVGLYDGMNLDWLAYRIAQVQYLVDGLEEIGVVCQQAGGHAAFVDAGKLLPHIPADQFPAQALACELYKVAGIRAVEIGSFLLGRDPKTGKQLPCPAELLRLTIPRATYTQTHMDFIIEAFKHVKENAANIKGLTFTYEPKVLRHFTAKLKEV

[3] = biological target: T3, E. coli DH5α tryptophan synthase (TrpBA) (Escherichia coli, UniProt P0A879); type: biochemical; design: key: +: a clear ninhydrin-positive spot at the Rf of standard tryptophan derivatives after 16-65 h; (+): a weak spot in the product region; −: no product observed; NR: experiment not run; conditions: indole derivative + L-serine + PLP, 37° C., 16-65 h, ninhydrin
T3 construct: made in house; host or cells: E. coli LMG194 (pBAD) or BL-21 (pET)
T3 sequence (P0A879 whole entry): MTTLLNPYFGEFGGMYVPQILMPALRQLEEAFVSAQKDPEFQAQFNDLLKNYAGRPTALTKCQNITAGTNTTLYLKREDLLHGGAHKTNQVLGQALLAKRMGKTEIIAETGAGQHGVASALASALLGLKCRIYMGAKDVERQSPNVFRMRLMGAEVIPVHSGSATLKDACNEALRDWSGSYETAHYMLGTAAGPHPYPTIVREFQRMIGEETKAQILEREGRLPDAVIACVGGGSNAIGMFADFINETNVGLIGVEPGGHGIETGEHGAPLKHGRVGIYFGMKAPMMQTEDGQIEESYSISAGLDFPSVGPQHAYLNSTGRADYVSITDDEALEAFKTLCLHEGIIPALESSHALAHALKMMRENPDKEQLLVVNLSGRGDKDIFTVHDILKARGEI
T3 sequence (P0A877 whole entry, further chain): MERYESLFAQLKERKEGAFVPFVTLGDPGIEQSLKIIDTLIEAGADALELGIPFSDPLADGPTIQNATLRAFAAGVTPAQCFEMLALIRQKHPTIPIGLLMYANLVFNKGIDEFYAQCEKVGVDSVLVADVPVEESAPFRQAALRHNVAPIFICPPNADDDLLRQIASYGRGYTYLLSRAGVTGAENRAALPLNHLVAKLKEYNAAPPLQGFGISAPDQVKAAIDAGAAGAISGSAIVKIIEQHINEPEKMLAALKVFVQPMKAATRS

TrpBA = biological target: T4, TrpBA (Escherichia coli, UniProt P0A879); experiment: Relative rates of tryptophan derivative synthesis by HPLC, TrpBA; type: biochemical, E. coli; design: key: **: rate too slow to quantitate; conditions: initial rate estimated by HPLC, indole = 100%
T4 construct: made in house; host or cells: E. coli LMG194 (pBAD) or BL-21 (pET)
T4 sequence (P0A879 whole entry): as the sequence (P0A879 whole entry) above
T4 sequence (P0A877 whole entry, further chain): as the sequence (P0A877 whole entry, further chain) above
Procedure: (§1) Reaction mixtures were prepared as in Example 6 and were incubated at 37° C. Aliquots (100 μL) were removed and quenched by addition of to 300 μL of 0.5 M sodium citrate, pH 3.0 in 10% v/v acetonitrile/water in 2 ml microcentrifuge tubes. Following centrifugation for 10 min at 13,000×g, the supernatants were passed through 0.45μ membrane filters prior to HPLC analysis of 20 μL of filtrate.
(§2) TnA reactions were run with L-serine as the 3-carbon substrate.

TrpBA and TDC1 = experiment: Coupled enzyme synthesis monitored by HPLC; type: biochemical; conditions: L-serine, PLP, pH 8.5 phosphate buffer, 37° C.
Procedure: To a solution containing L-serine (25 μmol), pyridoxal phosphate (0.05 μmol) and TrpBA (0.02 to 1.5 units, depending on the substrate), TDC1 (0.2 mL 0.6 units) and KPi buffer (0.05 mmol, pH 7.5) in a volume of 0.8 mL were added […] of 5 mM indole derivative in 20% v/v ethanol/water. The mixture was incubated at 37° C. and aliquots were quenched and analyzed as described for Example 8. In cases where tryptamine and/or tryptophan standards were not available, peaks were collected for mass spectral analysis. Electrospray mass spectral analyses were performed.
Mixtures containing indole, L-serine, PLP and TDC1 were incubated in pH 8.5 phosphate buffer, analyzing aliquots by HPLC, as described in Example 12.
The procedure used in Example 24 was carried out by substituting indole with 2-methylindole, 4-hydroxymethylindole, 5-methoxy-, 5-hydroxymethyl-, 5-methoxycarbonyl, and 5,6-dimethoxyindole.

TnA = biological target: T5, TnA (Escherichia coli, UniProt P0A853); experiment: Relative rates of tryptophan derivative synthesis by HPLC, TnA; type: biochemical, E. coli; conditions: initial rate estimated by HPLC, indole = 100%, L-serine as the 3-carbon substrate
T5 construct: made in house; host or cells: E. coli LMG194 (pBAD) or BL-21 (pET)
T5 sequence (P0A853 whole entry): as the sequence (P0A853 whole entry) above
Procedure: as §1, with “Aliquots” for “Reaction mixtures were prepared as in Example 6 and were incubated at 37° C. Aliquots”
as §2

| Structure (SMILES) | accepted ratio of DOPA to L-5-hydroxytryptophan decarboxylation (pkAAAD [1]) | rate ratio of DOPA decarboxylation relative to that of L-5-hydroxytryptophan (pkAAAD [2]) | TnA (tryptophan product spot, TLC analysis) (tryptophanase (TnA)) | TrpBA (tryptophan product spot, TLC analysis) [3] | Relative rate (TrpBA) (TrpBA) | formation of tryptophan derivative and tryptamine (HPLC peaks) (TrpBA and TDC1) | Relative Rate (TnA) (TnA) [%] |
| --- | --- | --- | --- | --- | --- | --- | --- |
| N[C@@H](Cc1ccc(O)c(O)c1)C(=O)O [DOPA] | approximately 5 | 4.5 |  |  |  |  |  |
| COc1cc2cc[nH]c2cc1OC [5,6-dimethoxy, 5,6-dimethoxyindole] |  |  | (+) | − | ** | a second peak representing formation of tryptamine | 2.1 |
